What was measured:
[1] = biological target: T1, purified recombinant human p38 alpha MAPK (Homo sapiens, UniProt Q16539); test: Inhibition of p38 alpha MAPK activity, TR-FRET kinase assay; assay type: biochemical; settings: Concentration 1 μM; read-out: P38α Inhibition
T1 construct: purchased Millipore, USA
Method in brief: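 Recombinant human p38α preincubated 15 min at RT with compound (0.5–1.0% DMSO), then 30 nM biotinylated GST-ATF2 and 100 μM ATP added for 60 min at RT. Stopped with EDTA; Eu-anti-phospho-ATF2 and APC-streptavidin detection, 60 min. % inhibition from 665/615 nm TR-FRET ratio.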

[2] = tested on: BALF fluid inflammatory cell influx and lung function; test: Chronic model of COPD in guinea pigs (tobacco smoke and LPS, 18 weeks); assay type: in vivo; settings: guinea pig, chronic TS/LPS COPD model, 3 mg/ml, aerosol exposure 50 minutes
Text: Observation: It was observed that compound of present invention was found effective in inhibition of neutrophil influx, an index of pulmonary inflammation in guinea pig model of airway inflammation. […] (II) Efficacy Studies in Chronic Model of COPD in Guinea Pigs.
Guinea pigs were exposed to tobacco smoke (TS) and Lipopolysaccharide (LPS) in an acrylic chamber. Exposure to TS and LPS is given in following manner in a week for a total of 18 weeks.
Lung delivery of test material was achieved by whole body aerosol exposure for 50 minutes in a chamber. Guinea pig were divided in different dose groups and exposed to either vehicle or compound no 43 (3 mg/ml). A total quantity of 7.0 ml of either vehicle or compound no 43 (suspension formulation with D90<5μ, with Malvern Mastersizer®) was nebulized in chambers to respective groups over 50 mins period. Compound no 43 or vehicle was administered 2 hr prior to TS/LPS exposure once daily from week 9 to week 18. Control animals were exposed to room air instead of TS and PBS instead of LPS. Lung function and bronchoalveolar lavage (BAL) for each animal was performed 24 hr post last TS exposure. […]
(§1) Lavage fluid was separated from cells by centrifugation and supernatant separated. […] Cells in aliquot were stained using Turk solution and total cell numbers were calculated by counting Turk stained aliquot under microscope using haemocytometer.
(§2) The residual cell suspension was resuspended and slides prepared using cyto centrifuge technique (Cytospin 4, Thermo Shandon). […] Up to 300 cells were counted and differentiated using standard morphometric techniques under light microscopy.
All results are presented at individual data for each animal and mean value calculated for each group. Percentage inhibition for the neutrophil was calculated for compound no 43 treatment group against vehicle group. […]

[3] = tested on: cigarette smoke induced inflammatory cell accumulation in BAL Fluid; test: Acute guinea pig model of airway inflammation (tobacco smoke), BAL neutrophils; assay type: in vivo, Guinea pigs; settings: acute TS model, 6 mg/ml, aerosol exposure 75 minutes
Text: Observation: It was observed that compound of present invention was found effective in inhibition of neutophil influx, an index of pulmonary inflammation. […] B. (I) Efficacy Studies in Acute Guinea Pig Model of Airway Inflammation
Guinea pigs were exposed to tobacco smoke (TS) in an acrylic chamber. Animals were exposed to TS from 5, 10, 15 cigarettes on day 1, day 2, day 3 respectively. From day 4 onwards till day 11, animals were exposed to TS from 15 cigarettes per day. […]
Lung delivery of test compound was achieved by whole body aerosol exposure for 75 minutes in a chamber. […] A total quantity of 7.0 ml of either vehicle or test compound formulation (suspension formulation with D90<5μ, with Malvern Mastersizer®) was nebulized in chambers to respective groups over 75 mins period. […]
as §1
as §2, with “microscopy. All results are presented at individual data for each animal and mean value calculated for each group. […]” for “microscopy.”

T1 sequence (Q16539 whole entry): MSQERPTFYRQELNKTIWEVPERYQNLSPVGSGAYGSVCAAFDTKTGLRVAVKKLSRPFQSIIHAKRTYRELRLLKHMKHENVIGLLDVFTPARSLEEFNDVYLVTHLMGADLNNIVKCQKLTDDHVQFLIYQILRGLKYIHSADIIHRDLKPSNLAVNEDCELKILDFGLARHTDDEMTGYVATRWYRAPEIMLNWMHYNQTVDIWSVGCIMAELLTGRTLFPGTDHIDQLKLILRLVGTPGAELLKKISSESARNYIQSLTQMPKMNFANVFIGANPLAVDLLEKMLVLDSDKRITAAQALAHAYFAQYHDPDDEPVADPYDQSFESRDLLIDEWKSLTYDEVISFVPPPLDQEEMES

CCS(=O)(=O)Nc1cc(C(C)(C)C)cc(NC(=O)Nc2ccc(OCCN3CCN(CC4CC4)C(=O)C3)c3c2CCC3)c1OC [Compound 43, N-(5-tert-butyl-3-{[(7-{2-[4-(cyclopropylmethyl)-3-oxopiperazin-1-yl]ethoxy}-2,3-dihydro-1H-inden-4-yl)carbamoyl]amino}-2-methoxyphenyl)ethanesulfonamide]
inhibition at 1 µM [1]: 80 to 100%
Neutrophil (*10^6cells) ([2]; BALF, once daily week 9 to 18, Mean ± SEM): 4.0 ± 0.70 *10^6cells
lung function parameters (FRC, RV, IC/TLC ratio, RV/TLC ratio) ([2]; FIGS. 1A, 1B, 2A, 2B): significantly improves lung function aspects
% inhib^n ([2]; neutrophil vs vehicle group): 32%
Effect on inflammatory cell influx Neutrophil (*10^6cells) ([3]; BAL fluid, Mean ± SEM): 0.8 ± 0.20 *10^6cells
Effect on inflammatory cell influx % inhib^n ([3]; neutrophil vs vehicle group): 57%

Reference: patent US9963463B2, “Urea-substituted indanes as P38 map kinase inhibitors” (TORRENT PHARMACEUTICALS LIMITED, priority 2014, dated 2018)
